Literature values, collected in patent US11285107B2, “Process for manufacturing porous silica particles loaded with at least one bioactive compound adapted for lung, nasal, sublingual, and/or pharyngeal delivery” (Nanologica AB, priority 2017, dated 2022).

solubility in water | SMILES
insoluble in water | NCC(=O)Nc1ccc(-n2nc(C(F)(F)F)cc2-c2ccc3c(ccc4ccccc43)c2)cc1 [OSU-03012, 2-amino-N-(4-(5-(phenanthren-2-yl)-3-(trifluoromethyl)-1H-pyrazol-1-yl)phenyl)acetamide]
> 6000 µg/mL | CCN(CC)CCNC(=O)c1cc(Cl)c(N)cc1OC [metoclopramide]
